Biological target: BRAF^V600E protein (Homo sapiens, UniProt P15056, V600E)
Assay: HiBiT cellular BRAF V600E degradation assay
Type: cell-based
Conditions: 24 h incubation; for DC50: A375.10 cells (HiBiT tag knocked in at N-terminal of BRAF V600E), concentration at which 50% of total cellular BRAF V600E is degraded; for Emax: A375.10 cells, Emax = amount of residual protein remaining in the cell after compound treatment, read-out: HiBit 24 h Emax

Chain of BRAF^V600E protein (P15056 whole entry V600E): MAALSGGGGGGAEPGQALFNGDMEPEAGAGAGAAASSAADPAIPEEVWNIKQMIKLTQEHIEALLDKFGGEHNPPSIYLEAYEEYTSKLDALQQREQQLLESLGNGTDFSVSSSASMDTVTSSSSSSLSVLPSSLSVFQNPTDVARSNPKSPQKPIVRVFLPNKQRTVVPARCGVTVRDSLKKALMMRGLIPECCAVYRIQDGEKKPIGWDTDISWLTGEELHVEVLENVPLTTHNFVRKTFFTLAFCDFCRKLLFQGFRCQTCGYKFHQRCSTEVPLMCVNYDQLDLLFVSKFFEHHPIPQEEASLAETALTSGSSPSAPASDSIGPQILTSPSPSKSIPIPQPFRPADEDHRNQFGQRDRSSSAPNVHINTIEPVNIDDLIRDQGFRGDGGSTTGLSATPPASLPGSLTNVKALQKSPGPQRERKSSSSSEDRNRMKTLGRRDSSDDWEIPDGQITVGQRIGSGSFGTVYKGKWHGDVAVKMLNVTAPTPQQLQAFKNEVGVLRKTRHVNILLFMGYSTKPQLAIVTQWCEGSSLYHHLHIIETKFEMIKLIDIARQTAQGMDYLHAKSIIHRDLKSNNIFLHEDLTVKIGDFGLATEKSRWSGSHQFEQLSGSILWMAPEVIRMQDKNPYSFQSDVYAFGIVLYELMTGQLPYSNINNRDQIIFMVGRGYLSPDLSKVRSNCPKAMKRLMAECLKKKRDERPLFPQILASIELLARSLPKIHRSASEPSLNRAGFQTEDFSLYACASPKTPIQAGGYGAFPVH

Row | DC50 | Emax | SMILES
1 | 57 nM | 32% | CCN(C)S(=O)(=O)Nc1ccc(F)c(C(=O)c2c[nH]c3ncc(C#CC4CCN(C(=O)CN5CCC(c6ccc(NC7CCC(=O)NC7=O)cc6)CC5)CC4)cc23)c1F (stereo not drawn) [Example A43, 5-[2-[1-[2-[4-[4-[(2,6-Dioxopiperidin-3-yl)amino]phenyl]piperidin-1-yl]acetyl]piperidin-4-yl]ethynyl]-3-[3-[[ethyl(methyl)sulfamoyl]amino]-2,6-difluorobenzoyl]-1H-pyrrolo[2,3-b]pyridine]
2 | 10.4 nM | 9.52% | CCN(C)S(=O)(=O)Nc1ccc(F)c(C(=O)c2c[nH]c3ncc(-c4ccc(C5CCN(C(=O)CN6CCC(c7ccc(NC8CCC(=O)NC8=O)cc7)CC6)CC5)cc4)cc23)c1F (stereo not drawn) [Example A44, 5-[4-[1-[2-[4-[4-[(2,6-Dioxopiperidin-3-yl)amino]phenyl]piperidin-1-yl]acetyl]piperidin-4-yl]phenyl]-3-[3-[[ethyl(methyl)sulfamoyl]amino]-2,6-difluorobenzoyl]-1H-pyrrolo[2,3-b]pyridine]
3 | 65 nM | 21% | CCN(C)S(=O)(=O)Nc1ccc(F)c(C(=O)c2c[nH]c3ncc(-c4ccc(N5CCN(C(=O)CN6CCC(c7ccc(OC8CCC(=O)NC8=O)cn7)CC6)CC5)nc4)cc23)c1F (stereo not drawn) [Example A45, 5-[6-[4-[2-[4-[5-(2,6-Dioxopiperidin-3-yl)oxypyridin-2-yl]piperidin-1-yl]acetyl]piperazin-1-yl]pyridin-3-yl]-3-[3-[[ethyl(methyl)sulfamoyl]amino]-2,6-difluorobenzoyl]-1H-pyrrolo[2,3-b]pyridine]
4 | 7.44 nM | 10.8% | CCN(C)S(=O)(=O)Nc1ccc(F)c(C(=O)c2c[nH]c3ncc(-c4cnc(C5CCN(C(=O)CN6CCC(c7ccc(NC8CCC(=O)NC8=O)cc7)CC6)CC5)nc4)cc23)c1F (stereo not drawn) [Example A46, 5-[2-[1-[2-[4-[4-[(2,6-Dioxopiperidin-3-yl)amino]phenyl]piperidin-1-yl]acetyl]piperidin-4-yl]pyrimidin-5-yl]-3-[3-[[ethyl(methyl)sulfamoyl]amino]-2,6-difluorobenzoyl]-1H-pyrrolo[2,3-b]pyridine]
5 | 3.86 nM | 10.7% | CCN(C)S(=O)(=O)Nc1ccc(F)c(C(=O)c2c[nH]c3ncc(-c4ccc(N5CCN(C(=O)CN6CCC(c7ccc(NC89CC(C8)C(=O)NC9=O)cc7)CC6)CC5)nc4)cc23)c1F [Example A47, 5-[6-[4-[2-[4-[4-[(2,4-Dioxo-3-azabicyclo[3.1.1]heptan-1-yl)amino]phenyl]piperidin-1-yl]acetyl]piperazin-1-yl]pyridin-3-yl]-3-[3-[[ethyl(methyl)sulfamoyl]amino]-2,6-difluorobenzoyl]-1H-pyrrolo[2,3-b]pyridine]
6 | 5 nM | 12% | O=C1CCC(Nc2ccc(C3CCN(CC(=O)N4CCN(c5ccc(-c6cnc7[nH]cc(C(=O)c8c(F)ccc(NS(=O)(=O)N9CCCC9)c8F)c7c6)cc5)CC4)CC3)cc2)C(=O)N1 (stereo not drawn) [Example A48, N-[3-[5-[4-[4-[2-[4-[4-[(2,6-Dioxopiperidin-3-yl)amino]phenyl]piperidin-1-yl]acetyl]piperazin-1-yl]phenyl]-1H-pyrrolo[2,3-b]pyridine-3-carbonyl]-2,4-difluorophenyl]pyrrolidine-1-sulfonamide]
7 | 17 nM | 11% | CCN(C)S(=O)(=O)Nc1ccc(F)c(C(=O)c2c[nH]c3ncc(-c4ccc(C5CCN(C(=O)CN6CCC(c7ccc(NC8CCC(=O)NC8=O)cc7)CC6)CC5)nc4)cc23)c1F (stereo not drawn) [Example A49, 5-[6-[1-[2-[4-[4-[(2,6-Dioxopiperidin-3-yl)amino]phenyl]piperidin-1-yl]acetyl]piperidin-4-yl]pyridin-3-yl]-3-[3-[[ethyl(methyl)sulfamoyl]amino]-2,6-difluorobenzoyl]-1H-pyrrolo[2,3-b]pyridine]
8 | 15 nM | 12% | O=C1CCC(Oc2ccc(C3CCN(CC(=O)N4CCN(c5ccc(-c6cnc7[nH]cc(C(=O)c8c(F)ccc(NS(=O)(=O)N9CCCC9)c8F)c7c6)cc5)CC4)CC3)cc2)C(=O)N1 (stereo not drawn) [Example A50, N-[3-[5-[4-[4-[2-[4-[4-(2,6-Dioxopiperidin-3-yl)oxyphenyl]piperidin-1-yl]acetyl]piperazin-1-yl]phenyl]-1H-pyrrolo[2,3-b]pyridine-3-carbonyl]-2,4-difluorophenyl]pyrrolidine-1-sulfonamide]
9 | 4 nM | 14% | O=C1CCC(Nc2ccc(N3CCN(CC(=O)N4CCN(c5ccc(-c6cnc7[nH]cc(C(=O)c8c(F)ccc(NS(=O)(=O)N9CCCC9)c8F)c7c6)cc5)CC4)CC3)cc2)C(=O)N1 (stereo not drawn) [Example A51, N-[3-[5-[4-[4-[2-[4-[4-[(2,6-Dioxopiperidin-3-yl)amino]phenyl]piperazin-1-yl]acetyl]piperazin-1-yl]phenyl]-1H-pyrrolo[2,3-b]pyridine-3-carbonyl]-2,4-difluorophenyl]pyrrolidine-1-sulfonamide]
10 | 10 nM | 12% | O=C1CCC(Nc2ccc(C3CCN(CC(=O)N4CCN(c5ccc(-c6cnc7[nH]cc(C(=O)c8c(F)ccc(NS(=O)(=O)C9CCCC9)c8F)c7c6)cc5)CC4)CC3)cc2)C(=O)N1 (stereo not drawn) [Example A52, N-[3-[5-[4-[4-[2-[4-[4-[(2,6-Dioxopiperidin-3-yl)amino]phenyl]piperidin-1-yl]acetyl]piperazin-1-yl]phenyl]-1H-pyrrolo[2,3-b]pyridine-3-carbonyl]-2,4-difluorophenyl]cyclopentanesulfonamide]
11 | 27 nM | 22% | O=C1CCC(Nc2ccc(C3CCN(C(=O)NC4CCN(Cc5ccc(-c6cnc7[nH]cc(C(=O)c8c(F)ccc(NS(=O)(=O)N9CCCC9)c8F)c7c6)cc5)CC4)CC3)cc2)C(=O)N1 (stereo not drawn) [Example A53, N-[1-[[4-[3-[2,6-Difluoro-3-(pyrrolidin-1-ylsulfonylamino)benzoyl]-1H-pyrrolo[2,3-b]pyridin-5-yl]phenyl]methyl]piperidin-4-yl]-4-[4-[(2,6-dioxopiperidin-3-yl)amino]phenyl]piperidine-1-carboxamide;formic acid]
12 | 3.94 nM | 9.71% | CCN(C)S(=O)(=O)Nc1ccc(F)c(C(=O)c2c[nH]c3ncc(-c4cnc(N5CCN(C(=O)CN6CCC(c7ccc(NC8CCC(=O)NC8=O)cc7F)CC6)CC5)nc4)cc23)c1F (stereo not drawn) [Example A54, 5-[2-[4-[2-[4-[4-[(2,6-Dioxopiperidin-3-yl)amino]-2-fluorophenyl]piperidin-1-yl]acetyl]piperazin-1-yl]pyrimidin-5-yl]-3-[3-[[ethyl(methyl)sulfamoyl]amino]-2,6-difluorobenzoyl]-1H-pyrrolo[2,3-b]pyridine]
13 | 97 nM | 26% | CCN(C)S(=O)(=O)Nc1ccc(F)c(C(=O)c2c[nH]c3ncc(-c4cnc(N5CCN(C(=O)C(C)(C)N6CCC(c7ccc(NC8CCC(=O)NC8=O)cc7)CC6)CC5)nc4)cc23)c1F (stereo not drawn) [Example A55, 5-[2-[4-[2-[4-[4-[(2,6-Dioxopiperidin-3-yl)amino]phenyl]piperidin-1-yl]-2-methylpropanoyl]piperazin-1-yl]pyrimidin-5-yl]-3-[3-[[ethyl(methyl)sulfamoyl]amino]-2,6-difluorobenzoyl]-1H-pyrrolo[2,3-b]pyridine]
14 | 20 nM | 11% | CCN(C)S(=O)(=O)Nc1ccc(F)c(C(=O)c2c[nH]c3ncc(-c4ccc(N5CCC(NC(=O)CN6CCC(c7ccc(NC8CCC(=O)NC8=O)cn7)CC6)CC5)cc4)cc23)c1F (stereo not drawn) [Example A56, 2-[4-[5-[(2,6-dioxopiperidin-3-yl)amino]pyridin-2-yl]piperidin-1-yl]-N-[1-[4-[3-[3-[[ethyl(methyl)sulfamoyl]amino]-2,6-difluorobenzoyl]-1H-pyrrolo[2,3-b]pyridin-5-yl]phenyl]piperidin-4-yl]acetamide; formic acid]
15 | 33 nM | 13% | CCN(C)S(=O)(=O)Nc1ccc(F)c(C(=O)c2c[nH]c3ncc(-c4ccc(N5CCC(NC(=O)CN6CCC(c7ccc(NC8CCC(=O)NC8=O)cn7)CC6)CC5)nc4)cc23)c1F (stereo not drawn) [Example A57, 2-[4-[5-[(2,6-dioxopiperidin-3-yl)amino]pyridin-2-yl]piperidin-1-yl]-N-[1-[5-[3-[3-[[ethyl(methyl)sulfamoyl]amino]-2,6-difluorobenzoyl]-1H-pyrrolo[2,3-b]pyridin-5-yl]pyridin-2-yl]piperidin-4-yl]acetamide;formic acid]
16 | 43 nM | 13% | CCN(C)S(=O)(=O)Nc1ccc(F)c(C(=O)c2c[nH]c3ncc(-c4cnc(N5CCC(NC(=O)CN6CCC(c7ccc(NC8CCC(=O)NC8=O)cn7)CC6)CC5)nc4)cc23)c1F (stereo not drawn) [Example A58, 2-[4-[5-[(2,6-dioxopiperidin-3-yl)amino]pyridin-2-yl]piperidin-1-yl]-N-[1-[5-[3-[3-[[ethyl(methyl)sulfamoyl]amino]-2,6-difluorobenzoyl]-1H-pyrrolo[2,3-b]pyridin-5-yl]pyrimidin-2-yl]piperidin-4-yl]acetamide; formic acid]
17 | 60 nM | 13% | CCN(C)S(=O)(=O)Nc1ccc(F)c(C(=O)c2c[nH]c3ncc(-c4cnc(N5CCC(NC(=O)CN6CCC(c7ccc(OC8CCC(=O)NC8=O)cc7)CC6)CC5)nc4)cc23)c1F (stereo not drawn) [Example A59, 2-[4-[4-(2,6-Dioxopiperidin-3-yl)oxyphenyl]piperidin-1-yl]-N-[1-[5-[3-[3-[[ethyl(methyl)sulfamoyl]amino]-2,6-difluorobenzoyl]-1H-pyrrolo[2,3-b]pyridin-5-yl]pyrimidin-2-yl]piperidin-4-yl]acetamide;formic acid]
18 | 275 nM | 24% | CCN(C)S(=O)(=O)Nc1ccc(F)c(C(=O)c2c[nH]c3ncc(-c4cnc(N5CCC(NC(=O)CN6CCC(c7ccc(OC8CCC(=O)NC8=O)cn7)CC6)CC5)nc4)cc23)c1F (stereo not drawn) [Example A60, 2-[4-[5-(2,6-Dioxopiperidin-3-yl)oxypyridin-2-yl]piperidin-1-yl]-N-[1-[5-[3-[3-[[ethyl(methyl)sulfamoyl]amino]-2,6-difluorobenzoyl]-1H-pyrrolo[2,3-b]pyridin-5-yl]pyrimidin-2-yl]piperidin-4-yl]acetamide;formic acid]
